# According to EPA's ToxValDB 9.5 (doi:10.2903/j.efsa.2008.145r):
# Tests used:
# [1] = system: Rattus norvegicus
# [2] = system: Bibionidae; conditions: chronic/long-term; duration: 28 days
# [3] = system: Coturnix japonica; conditions: acute, oral, mortality
# [4] = system: Tagia sp.; conditions: acute; duration: 14 days; mortality
# [5] = system: Colinus virginianus
# [6] = system: Daphnia magna; conditions: chronic/long-term; duration: 21 days; reproduction
# [7] = system: Apis mellifera; conditions: acute; duration: 48 hours; oral; unspecified; mortality
# [8] = system: Oncorhynchus mykiss
compound,measurement,setting,value
Cc1cccc(C)c1N(Cn1cccn1)C(=O)CCl [Metazachlor],LD50,"[1]; acute, mortality",> 2000 mg/kg
same,NOAEL,[1]; chronic,79 mg/kg-day
same,NOAEL,"[1]; chronic, duration: 2 years, organ weight",8.5 mg/kg-day
same,NOAEL,"[1]; developmental, development",50 mg/kg-day
same,NOAEL,"[1]; subchronic, duration: 90 days, oral, organ weight",21 mg/kg-day
same,NOEC,[2],7.93 mg/kg
same,LD50,[3]; diet,> 449 mg/kg-day
same,LD50,[3],> 2000 mg/kg
same,LC50,[4],> 1000 mg/kg
same,LD50,"[5]; acute, oral, mortality",> 2000 mg/kg
same,NOEL,[5]; reproduction developmental,76.5 mg/kg-day
same,NOEC,[6],0.1 mg/L
same,LD50,[7],> 72.2 µg/piece
same,LC50,"[8]; acute, duration: 96 hours, mortality",8.5 µg/mL
same,NOEC,"[8]; chronic/long-term, duration: 28 days, growth",2.15 mg/L
